From patent US7695908B2, “Methods for predicting methotrexate polyglutamate levels using pharmacogenetics” (Prometheus Laboratories Inc., priority 2004, dated 2010)

Assay: HPLC quantification of red blood cell MTXPG concentrations in rheumatoid arthritis patients on low-dose MTX therapy, with regression on age, dose, route and RFC-1/GGH genotype
Type: in vivo, human
Conditions: multivariate linear regression, route p<0.04
Method: The study was cross-sectional at three investigational sites (The Center of Rheumatology, Albany, N.Y.; Rheumatology Practice, Knoxville, Tenn.; Radiant Research, Daytona Beach, Fla.). To be eligible, patients (≧18 yrs.) had to meet the revised criteria of the American Rheumatism Association for Rheumatoid Arthritis and had to have received low-dose MTX therapy for at least three months. Other medications included low-dose corticosteroids (<10 mg day) and folic acid supplementation for the prevention of side-effects induced by MTX. Local Institutional Review Board approved the study and patient consent was obtained for each patient. Patients' demographics were collected at the time of enrollment in the study. Blood was drawn in EDTA-containing tubes and shipped overnight to Prometheus Laboratories Inc. (San Diego, Calif.) for analysis.
Red blood cell MTXPG concentrations were measured as described previously using an HPLC-fluorometry procedure with a post-column photo-oxidation technique (Dervieux et al., Clin. Chem., 49:1632-1641 (2003)). Results are expressed in nmol/L as either total MTXPG1-5 levels or total long-chain MTXG3-5 levels (i.e., the sum of MTXP3+MTXPG4+MTXPG5 levels).
The statistical analysis consisted of a multivariate linear or logistic regression, with MTXPG levels (i.e., MTXPG1-5, MTXPG3-5) as dependent variables and predictors (i.e., age, weekly MTX dose, route of administration, and RFC-1 and GGH genotypes) as independent variables. For calculating a pharmacogenetic index, the genotypes were dichotomized as homozygous mutants (RFC-1 80A/A and GGH −401T/T; value of 1) versus wild-type or heterozygous (RFC-1 80G/G or 80G/A and GGH −401C/C or −401C/T; value of 0) as appropriate. Group comparisons were performed with the Kruskall-Wallis ANOVA. The likelihood of having MTXPG levels above group median was derived from the logistic regression model. Odds ratio (OR) and probability (P) are given with a 95% confidence interval (CI). Estimates are given with standard error.

Row | Compound | RBC MTXPG levels after injected MTX compared to oral administration
1 | CN(Cc1cnc2nc(N)nc(N)c2n1)c1ccc(C(=O)N[C@@H](CCC(=O)O)C(=O)O)cc1 [MTX, methotrexate] | higher MTXPG levels

Same assay, conditions: unadjusted, Kruskall-Wallis; FIG. 3

Row | Change of RBC level with increased pharmacogenetic index (PI, from −1 to 1) | Compound
2 | increased | CN(Cc1cnc2nc(N)nc(N)c2n1)c1ccc(C(=O)NC(CCC(=O)NC(CCC(=O)NC(CCC(=O)NC(CCC(=O)NC(CCC(=O)O)C(=O)O)C(=O)O)C(=O)O)C(=O)O)C(=O)O)cc1 (stereo not drawn) [MTXPG5]
3 | increased | CN(Cc1cnc2nc(N)nc(N)c2n1)c1ccc(C(=O)N[C@@H](CCC(=O)N[C@@H](CCC(=O)N[C@@H](CCC(=O)N[C@@H](CCC(=O)O)C(=O)O)C(=O)O)C(=O)O)C(=O)O)cc1 [MTXPG4]
4 | increased | CN(Cc1cnc2nc(N)nc(N)c2n1)c1ccc(C(=O)N[C@@H](CCC(=O)N[C@@H](CCC(=O)N[C@@H](CCC(=O)O)C(=O)O)C(=O)O)C(=O)O)cc1 [MTXPG3]

Second part, the molecule before the results:

Row | Compound | Change of RBC level with increased pharmacogenetic index (PI, from −1 to 1)
5 | CN(Cc1cnc2nc(N)nc(N)c2n1)c1ccc(C(=O)NC(CCC(=O)NC(CCC(=O)O)C(=O)O)C(=O)O)cc1 (stereo not drawn) [MTXPG2] | no significant differences
6 | CN(Cc1cnc2nc(N)nc(N)c2n1)c1ccc(C(=O)N[C@@H](CCC(=O)O)C(=O)O)cc1 [MTX, methotrexate] | no significant differences
